In patent US9499538B2, “Estrogen receptor modulators and uses thereof” (Seragon Pharmaceuticals, Inc., priority 2012, dated 2016):

Experiments:
MCF-7 cells = assay: Breast Cancer Cell Viability Assays (MCF-7, CellTiter-Glo); assay type: cell-based; details: 5 days' compound exposure; for IC50: Homo sapiens, MCF7, 120 h
Description: MCF-7 cells were adjusted to a concentration of 20,000 cells per mL in RPMI containing 10% FBS and 20 mM HEPES. 16 microliters of the cell suspension (320 cells) was added to each well of a 384 well plate, and the cells were incubated overnight to allow the cells to adhere. The following day an eleven point, serial semilog dilution of each compound was added to the cells in 16 μL at a final concentration ranging from 0.3-0.000003 μM. After 5 days' compound exposure, 16 μL of CellTiter-GLo (Promega, Madison Wis.) was added to the cells, and the relative luminescence units (RLUs) of each well were determined. CellTiter-Glo added to 32 μL of medium without cells was used to obtain a background value. The Percent viability of each sample was determined as follows: (RLU sample−RLU background/RLU untreated cells−RLU background)×100=% viability. […]

ER-α in MCF-7 cells = molecular target: T1, ER-α in MCF-7 cells (Homo sapiens, UniProt P03372); assay: Breast Cancer Cell ER-α In Cell Western Assay (SP1); assay type: cell-based; details: 4 or 24 hr post compound addition; for Emax: MCF7, SP1 antibody, read-out: ER-α In Cell Western Assay (SP1) Max Response; for DC50: SP1 antibody, read-out: ER-α In Cell Western Assay (SP1) IC50
T1 construct: endogenous in cells; host or cells: MCF-7
T1 sequence (P03372 1-595): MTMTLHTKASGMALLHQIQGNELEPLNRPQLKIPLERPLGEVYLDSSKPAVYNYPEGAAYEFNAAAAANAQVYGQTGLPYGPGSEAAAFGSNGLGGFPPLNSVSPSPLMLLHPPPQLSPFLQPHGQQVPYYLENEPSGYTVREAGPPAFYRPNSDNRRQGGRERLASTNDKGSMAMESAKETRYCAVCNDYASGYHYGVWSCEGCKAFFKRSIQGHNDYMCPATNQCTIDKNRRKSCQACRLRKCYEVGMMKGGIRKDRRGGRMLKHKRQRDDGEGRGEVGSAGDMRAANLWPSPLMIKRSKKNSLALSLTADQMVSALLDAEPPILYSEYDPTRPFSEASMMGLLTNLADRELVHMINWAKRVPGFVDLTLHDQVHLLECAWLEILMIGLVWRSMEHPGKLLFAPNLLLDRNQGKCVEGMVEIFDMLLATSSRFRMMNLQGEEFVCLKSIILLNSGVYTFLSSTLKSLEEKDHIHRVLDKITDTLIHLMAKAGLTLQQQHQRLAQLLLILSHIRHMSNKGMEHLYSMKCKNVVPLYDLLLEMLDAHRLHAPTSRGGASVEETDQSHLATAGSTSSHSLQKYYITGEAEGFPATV
Description: MCF-7 cells were adjusted to a concentration of 200,000 cells per mL in RPMI containing 10% charcoal-stripped FBS and 20 mM HEPES. 16 microliters of the cell suspension (3200 cells) was added to each well of a poly-D-lysine 384 well plate, and the cells were incubated overnight to allow the cells to adhere. The following day an eleven point, serial semilog dilution of each compound was added to the cells in 16 μL at a final concentration ranging from 0.3-0.000003 μM. At 4 or 24 hr post compound addition, the cells were fixed (10% formalin in PBS) for 20 minutes. Cells were permeablized in PBS 0.1% Triton and blocked with LICOR blocking buffer (50 μl/well, 90′). The wells were then incubated overnight at 4° C. with SP1 rabbit monoclonal Ab (Thermo Scientific) diluted 1:1000 in LICOR blocking buffer/0.1% Tween-20. Wells which were treated with blocking buffer with Tween but no antibody were used as a background control. Wells were washed with 0.1% Tween-20/PBS and then incubated in goat anti-rabbit IRDye™ 800CW (LICOR Inc.; 1:10000) and DRAQ5 DNA dye (1:2000 for 2 mM stock) diluted in LICOR blocking buffer containing 0.1% Tween-20 and 0.01% SDS for 60 minutes. Cells were washed (50 μl/well, 5′ each) in 0.1% Tween-20/PBS. Plates were scanned on a LICOR Odyssey infrared imaging system. Integrated intensities in the 800 nm channel and 700 nm channel were measured to determine levels of ER and DNA respectively. Percent ER levels were determined as follows: (Integrated intensity 800 nm sample/integrated intensity 700 nm sample)/(Integrated intensity 800 nm untreated cells/integrated intensity 700 nm untreated cells)×100=% ER levels. […]

| Structure (SMILES) | IC50 (MCF-7 cells) | Emax (ER-α in MCF-7 cells) | DC50 (ER-α in MCF-7 cells) | MCF7 Viability Assay Max Response (MCF-7 cells) |
| --- | --- | --- | --- | --- |
| COc1ccc(/C(=C(\c2ccc(/C=C/C(=O)O)cc2)c2ccc3[nH]nc(F)c3c2)C2CC2)cc1 [Example 30, (E)-3-(4-((E)-2-Cyclopropyl-1-(3-fluoro-1H-indazol-5-yl)-2-(4-methoxyphenyl)vinyl)phenyl)acrylic acid] | ≤ 100 nM | ≥ 40% | ≤ 100 nM | ++ (++ = a single % value ≧ 40%) |
| COc1cccc(/C(=C(\c2ccc(/C=C/C(=O)O)cc2)c2ccc3[nH]nc(F)c3c2)C2CC2)c1 [Example 31, (E)-3-(4-((E)-2-Cyclopropyl-1-(3-fluoro-1H-indazol-5-yl)-2-(3-methoxyphenyl)vinyl)phenyl)acrylic acid] | ≤ 100 nM | ≥ 40% | ≤ 100 nM | ++ (++ = a single % value ≧ 40%) |
| CC/C(=C(/c1ccc(/C=C/C(=O)O)cc1)c1cc(F)c2[nH]ncc2c1F)c1ccccc1 [Example 32, (E)-3-(4-((E)-1-(4,7-Difluoro-1H-indazol-5-yl)-2-phenylbut-1-en-1-yl)phenyl)acrylic acid] | > 100 nM | ≥ 40% | > 100 nM | ++ (++ = a single % value ≧ 40%) |
| O=C(O)/C=C/c1ccc(/C(=C(\c2ccccc2)C2CCC2)c2ccc3[nH]ncc3n2)cc1 [Example 33, (E)-3-(4-((E)-2-Cyclobutyl-2-phenyl-1-(1H-pyrazolo[4,3-b]pyridin-5-yl)vinyl)phenyl)acrylic acid] | ≤ 100 nM | ≥ 40% | ≤ 100 nM | ++ (++ = a single % value ≧ 40%) |
| O=C(O)/C=C/c1ccc(/C(=C(\c2ccc(F)cc2Cl)C2CCC2)c2ccc3[nH]ncc3n2)cc1 [Example 34, (E)-3-(4-((E)-2-(2-Chloro-4-fluorophenyl)-2-cyclobutyl-1-(1H-pyrazolo[4,3-b]pyridin-5-yl)vinyl)phenyl)acrylic acid] | ≤ 100 nM | ≥ 40% | ≤ 100 nM | ++ (++ = a single % value ≧ 40%) |
| CC(C)/C(=C(/c1ccc(/C=C/C(=O)O)cc1)c1ccc2[nH]ncc2c1)c1ccccc1Cl [Example 35, (E)-3-(4-((E)-2-(2-Chlorophenyl)-1-(1H-indazol-5-yl)-3-methylbut-1-en-1-yl)phenyl)acrylic acid] | ≤ 100 nM | ≥ 40% | ≤ 100 nM | ++ (++ = a single % value ≧ 40%) |
| O=C(O)/C=C/c1ccc(/C(=C(\c2ccccc2)C2CCC2)c2ccc3[nH]nc(F)c3c2)cn1 [Example 36, (E)-3-(5-((Z)-2-Cyclobutyl-1-(3-fluoro-1H-indazol-5-yl)-2-phenylvinyl)pyridin-2-yl)acrylic acid] | ≤ 100 nM | ≥ 40% | ≤ 100 nM | ++ (++ = a single % value ≧ 40%) |
| Cc1cc(/C(=C(\c2ccccc2)C2CCC2)c2ccc3[nH]nc(F)c3c2)ccc1/C=C/C(=O)O [Example 37, (E)-3-(4-((E)-2-Cyclobutyl-1-(3-fluoro-1H-indazol-5-yl)-2-phenylvinyl)-2-methylphenyl)acrylic acid] | ≤ 100 nM | ≥ 40% | ≤ 100 nM | ++ (++ = a single % value ≧ 40%) |
| COc1cc(/C=C/C(=O)O)ccc1/C(=C(\c1ccccc1)C1CCC1)c1ccc2[nH]nc(F)c2c1 [Example 38, (E)-3-(4-((Z)-2-Cyclobutyl-1-(3-fluoro-1H-indazol-5-yl)-2-phenylvinyl)-3-methoxyphenyl)acrylic acid] | ≤ 100 nM | ≥ 40% | ≤ 100 nM | ++ (++ = a single % value ≧ 40%) |
| Fc1n[nH]c2ccc(/C(=C(/c3ccccc3)C3CCC3)c3ccc(/C=C/c4cnc[nH]4)cc3)cc12 [Example 39, 5-((E)-1-(4-((E)-2-(1H-Imidazol-5-yl)vinyl)phenyl)-2-cyclobutyl-2-phenylvinyl)-3-fluoro-1H-indazole] | ≤ 100 nM | ≥ 40% | ≤ 100 nM | ++ (++ = a single % value ≧ 40%) |
| N#Cc1ccc(/C(=C(\c2ccc(/C=C/C(=O)O)cc2)c2ccc3[nH]nc(F)c3c2)C2CCC2)c(Cl)c1 [Example 40, (E)-3-(4-((E)-2-(2-Chloro-4-cyanophenyl)-2-cyclobutyl-1-(3-fluoro-1H-indazol-5-yl)vinyl)phenyl)acrylic acid] | ≤ 100 nM | ≥ 40% | ≤ 100 nM | ++ (++ = a single % value ≧ 40%) |
| CC/C(=C(/c1ccc(/C=C/C(=O)O)cc1)c1ccc2[nH]ncc2c1)c1cccc(S(=O)(=O)C(F)(F)F)c1 [Example 41, (E)-3-(4-((E)-1-(1H-Indazol-5-yl)-2-(3-((trifluoromethyl)sulfonyl)phenyl)but-1-en-1-yl)phenyl)acrylic acid] | ≤ 100 nM | ≥ 40% | ≤ 100 nM | ++ (++ = a single % value ≧ 40%) |

Further lines, with some results ahead:

| IC50 (MCF-7 cells) | Emax (ER-α in MCF-7 cells) | DC50 (ER-α in MCF-7 cells) | Structure (SMILES) | MCF7 Viability Assay Max Response (MCF-7 cells) |
| --- | --- | --- | --- | --- |
| ≤ 100 nM | ≥ 40% | ≤ 100 nM | COc1ccc(/C(=C(\c2ccc(/C=C/C(=O)O)cc2)c2ccc3[nH]ncc3c2)C2CCC2)c(C#N)c1 [Example 42, (E)-3-(4-((E)-2-(2-Cyano-4-methoxyphenyl)-2-cyclobutyl-1-(1H-indazol-5-yl)vinyl)phenyl)acrylic acid] | ++ (++ = a single % value ≧ 40%) |
| ≤ 100 nM | ≥ 40% | ≤ 100 nM | N#Cc1ccc(/C(=C(\c2ccc(/C=C/C(=O)O)cc2)c2ccc3[nH]ncc3c2)C2CCC2)c(Cl)c1 [Example 43, (E)-3-(4-((E)-2-(2-Chloro-4-cyanophenyl)-2-cyclobutyl-1-(1H-indazol-5-yl)vinyl)phenyl)acrylic acid] | ++ (++ = a single % value ≧ 40%) |
| ≤ 100 nM | ≥ 40% | ≤ 100 nM | COc1ccc(/C(=C(\c2ccc(/C=C/C(=O)O)cc2)c2ccc3[nH]nc(F)c3c2)C2CCC2)c(C#N)c1 [Example 44, (E)-3-(4-((E)-2-(2-Cyano-4-methoxyphenyl)-2-cyclobutyl-1-(3-fluoro-1H-indazol-5-yl)vinyl)phenyl)acrylic acid] | ++ (++ = a single % value ≧ 40%) |
| ≤ 100 nM | ≥ 40% | ≤ 100 nM | O=C(O)/C=C/c1ccc(/C(=C(\c2cccc(S(=O)(=O)C(F)(F)F)c2)C2CCC2)c2ccc3[nH]nc(F)c3c2)cc1 [Example 45, (E)-3-(4-((E)-2-Cyclobutyl-1-(3-fluoro-1H-indazol-5-yl)-2-(3-((trifluoromethyl)sulfonyl)phenyl)vinyl)phenyl)acrylic acid] | ++ (++ = a single % value ≧ 40%) |
| ≤ 100 nM | ≥ 40% | ≤ 100 nM | Cc1cnccc1/C(=C(\c1ccc(/C=C/C(=O)O)cc1)c1ccc2[nH]nc(F)c2c1)C1CCC1 [Example 46, (E)-3-(4-((E)-2-Cyclobutyl-1-(3-fluoro-1H-indazol-5-yl)-2-(3-methylpyridin-4-yl)vinyl)phenyl)acrylic acid] | ++ (++ = a single % value ≧ 40%) |
